Data taken from PubChem BioAssay (NCI).
Values joined by “and” are separate entries in the source; they are usually repeats but may differ in a detail not shown here. Equal entries are not always repeated.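 Cultured in 96-well plates, cells were exposed to test compound for 48 hours across five concentrations. The concentration for 50% growth inhibition is given as GI50. Definition used: TGI = concentration required for complete inhibition of growth.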

Columns and labels:
Assay in all cases: NCI-60 cell line screen, 48 h
[1] = tested on: UO-31 renal
[2] = tested on: SNB-75 CNS
[3] = tested on: SN12C renal
[4] = tested on: HCC-2998 colon
[5] = tested on: UACC-257 melanoma
[6] = tested on: IGROV1 ovarian
[7] = tested on: LOX IMVI melanoma
[8] = tested on: SK-MEL-5 melanoma
[9] = tested on: TK-10 renal
[10] = tested on: MDA-MB-231 breast

| SMILES | GI50 [1] [µM] | TGI [1] | GI50 [2] [µM] | TGI [2] | GI50 [3] [µM] | TGI [3] | GI50 [4] [µM] | TGI [4] | GI50 [5] [µM] | TGI [5] | GI50 [6] [µM] | TGI [6] | GI50 [7] [µM] | TGI [7] | GI50 [8] [µM] | TGI [8] | GI50 [9] [µM] | TGI [9] | TGI [10] [µM] | GI50 [10] [µM] |
| --- | --- | --- | --- | --- | --- | --- | --- | --- | --- | --- | --- | --- | --- | --- | --- | --- | --- | --- | --- | --- |
| C=C(C)[C@@H]1CC=C(CO)CC1 | > 10 | > 10 µM and 1050 µM | > 10 | > 10 µM and 374 µM | > 10 | > 10 µM and 1220 µM | > 10 | > 10 µM and 1460 µM | > 10 | > 10 µM and 1150 µM | > 10 | > 10 µM and 1260 µM | > 10 | > 10 µM and 923 µM | > 10 | > 10 µM and 649 µM | > 10 | > 10 µM and 998 µM | > 10 |  |
| CCN(CC)c1ccc(/C=C/c2cc(C)c3ccccc3n2)cc1 | 3.18 | 15 µM | 3.09 | 9.4 µM | 7.27 | > 100 µM | 4.11 | 81.1 µM | 5.18 | 42.8 µM | 2.81 | 25.7 µM | 4.67 | 28.1 µM | 3.1 | 11.8 µM | 4.47 | 13.8 µM | 13.3 | 3.54 |
| C=C1C(=O)O[C@@H]2C1CC(=O)C(C)CC/C=C(\C)CCC[C@H](C)[C@H]2OC(C)=O (stereo partly specified) | 11.9 | 29.5 µM | 14.9 | 29.8 µM | 5.46 | 21.6 µM | 15.6 | 29.9 µM | 18.4 | 36.6 µM | 10.1 | 26.3 µM | 2.15 | 6.22 µM | 11.5 | 23.6 µM | 1.79 | 8.43 µM | 33.5 | 15.5 |
| CC1=CC(=O)c2c(O)cccc2C1=O |  | 2.98 µM |  | 16.9 µM |  | 3.39 µM |  | 4.12 µM |  | 3.27 µM |  | 3.33 µM |  | 3.32 µM |  | 3.05 µM |  | 3.14 µM | 3.64 |  |
| O=C(O)[C@@H]1C2CC([C@@H]1C(=O)O)[C@H](N1C(=O)CCC1=O)[C@@H]2Br (stereo partly specified) |  | > 100 µM |  | > 100 µM |  | > 100 µM |  | > 100 µM |  | > 100 µM |  | > 100 µM |  | > 100 µM |  | > 100 µM |  | > 100 µM | > 100 |  |
| CC[C@](C)(O)C(=O)O[C@H]1C(=O)O[C@@H]2C[C@H]3C(C)=CC(=O)[C@@H](O)[C@]3(C)[C@H]3[C@@]4(O)OC[C@]32[C@@H]1[C@@H](C)[C@H]4O | 0.662 | 3.71 µM and 3.78 µM | 0.258 | 1.02 µM and 0.17 µM | 0.317 | 2.03 µM and 5.18 µM | 0.12 | 0.469 µM and 0.316 µM | 0.142 | 0.841 µM and 0.218 µM | 0.0736 | 0.544 µM and 0.274 µM | 0.0563 | 0.278 µM and 0.545 µM |  | 0.136 µM |  | 9.39 µM | 4.34 |  |
| CC(C)(C(=O)NN)c1ccccc1 |  | > 100 µM |  | > 100 µM |  | > 100 µM |  | > 100 µM |  | > 100 µM |  | > 100 µM |  | > 100 µM |  | > 100 µM |  | > 100 µM | > 100 |  |
